“Also recorded” adds a separate entry of the source. Structures can show the parent of a compound that is named as a salt.
Legend:
[1] = Stability test under light condition; assay type: physicochemical; settings: for stability under light condition in words: text statement; for The decomposed amount (%): light box 4500 Lx ± 500 Lx, 25° C., 12 days, chiral HPLC vs day 0
Protocol: The stability test was carried out on 10 mg of each of the free base, salts of the morpholine derivative in Examples 1-6 under light condition.

[2] = Solubility test in pure water; assay type: physicochemical; settings: for Solubility: pure water, 25° C., 5 mg sample; for water solubility: summary statement in description
Protocol: 5 mg of each of the free base and salts of the morpholine derivative in Examples 1-7 was added with pure water gradually at 25° C., until all the samples were completely dissolved. The solubility of each sample was calculated based on the actual weight of the sample and the amount of water.

[3] = Hygroscopicity test (weight change as humidity increased from 20% to 80%); assay type: physicochemical; settings: for Weight change in 20%-80% humidity: 5 mg sample, humidity increased from 20% to 80%; for Level (hygroscopicity): 20%-80% humidity
Protocol: 5 mg of each of the salts of the morpholine derivative in the examples was measured for their weight change as the humidity was increased from 20% to 80%.

[4] = Stability test under oxidation condition; assay type: physicochemical; settings: for Types of new impurities (type) / The decomposed amount (%): closed container with hydrogen peroxide urea, 40° C., 12 days; for The decomposed amount (%): chiral HPLC vs day 0; for stability under oxidation condition in words: text statement
Protocol: The stability test was conducted on 10 mg of each of the free base and salts of the morpholine derivative in the examples under oxidation condition.

[5] = Dynamic Vapor Sorption Analysis (DVS); assay type: physicochemical; settings: for hygroscopicity in words: text statement
Protocol: Dynamic Vapor Sorption Analysis (DVS) data was taken from a TA Instruments Q5000 TGA, instrument control software was Thermal Advantage, and analysis software was Universal Analysis. Generally, 1 to 10 mg of the sample was placed in a platinum crucible, the TA software generally recorded the weight change of the sample as the relative humidity changed from 0% to 80% to 0%. According to the specific conditions of the sample, different adsorption and desorption steps might also be applied to the sample.

[6] = background statement on prior-art free base; cited from earlier work
[7] = background statement on prior-art free base; cited from earlier work; remark: listed apart in the source

Q: With `COC(=O)NCCCn1nc([C@@H](C)N(C(=O)[C@H]2CNCCO2)C2CC2)c2ccc(C)nc21` [morpholine derivative acetate] as the molecule, how does the “stability under light condition in words” value [1] read?
A: good thermal stability

Q: What about the Solubility [2] of the same molecule?
A: 150 to 300 mg/mL

Q: What about the water solubility [2] of the same molecule?
A: 150 to 300 mg/mL

Q: And the “Weight change in 20%-80% humidity” value [3]?
A: 21.30%

Q: What about the “Types of new impurities (type)” value [4] of the same molecule?
A: 5 type

Q: What about the “The decomposed amount (%)” value [4] of the same molecule?
A: 95.71%

Q: What about the “DVS weight loss during the drying stage” value ([5]; 0% of the initial humidity) of the same molecule?
A: about 5%

Q: What about the “DVS moisture absorbed, amount of its weight” value ([5]; 20% to 60% humidity) of the same molecule?
A: 6.4%

Q: What about the “DVS moisture absorbed, amount of its weight” value ([5]; 90% of humidity) of the same molecule?
A: 40%

Q: What about the hygroscopicity in words [5] of the same molecule?
A: deliquesced

Q: Which results are given for `COC(=O)NCCCn1nc([C@@H](C)N(C(=O)[C@H]2CNCCO2)C2CC2)c2ccc(C)nc21` [morpholine derivative free base, methyl (3-(3-((R)-1-((R)—N-cyclopropylmorpholine-2-carboxamido)ethyl)-6-methyl-1H-pyrazolo[3,4-b]pyridin-1-yl)n-propyl)carbamate, reference compound]?
A: The decomposed amount (%) [1]: 100%; oxidation stability in words [6]: relatively easy to be oxidized; water solubility in words [7]: poor water solubility; Solubility [2]: 5 to 10 mg/mL; Level (hygroscopicity) [3]: difficult; Types of new impurities (type) [4]: 6 type; The decomposed amount (%) [4]: 38.0%

Q: Which “The decomposed amount (%)” value [1] does the source give for `COC(=O)NCCCn1nc([C@@H](C)N(C(=O)[C@H]2CNCCO2)C2CC2)c2ccc(C)nc21` [morpholine derivative hydrochloride] here?
A: 5.27%

Q: And the “stability under light condition in words” value [1]?
A: good thermal stability

Q: What about the Solubility [2] of the same molecule?
A: >500 mg/mL

Q: And the water solubility [2]?
A: > 500 mg/mL

Q: What about the “Weight change in 20%-80% humidity” value [3] of the same molecule?
A: 31.80%

Q: What about the “Level (hygroscopicity)” value [3] of the same molecule?
A: Very easy

Q: And the “Types of new impurities (type)” value [4]?
A: 6 type

Q: What about the “The decomposed amount (%)” value [4] of the same molecule?
A: 63.53%

Q: And the “DVS water absorbed in 0% to 60% RH” value ([5]; 0% to 60% RH)?
A: 15%

Q: And the hygroscopicity in words [5]?
A: deliquescent; also recorded: very hydroscopic

Q: Which “The decomposed amount (%)” value [1] does the source give for `COC(=O)NCCCn1nc([C@@H](C)N(C(=O)[C@H]2CNCCO2)C2CC2)c2ccc(C)nc21` [morpholine derivative malate] here?
A: 2.05%

Q: And the “stability under light condition in words” value [1]?
A: better stability

Q: And the Solubility [2]?
A: 100 mg/mL

Q: And the water solubility [2]?
A: ~100 mg/mL

Q: And the “Weight change in 20%-80% humidity” value [3]?
A: 1.70%

Q: What about the “Types of new impurities (type)” value [4] of the same molecule?
A: 2 type

Q: And the “The decomposed amount (%)” value [4]?
A: 8.46%

Q: What about the “stability under oxidation condition in words” value [4] of the same molecule?
A: better stability

Q: And the “DVS weight change in a range of 20%-80% humidity” value [5]?
A: about 1.2%

Q: For `COC(=O)NCCCn1nc([C@@H](C)N(C(=O)[C@H]2CNCCO2)C2CC2)c2ccc(C)nc21` [morpholine derivative naphthalene disulfonate], which “The decomposed amount (%)” value [1] is on record?
A: 12.58%

Q: And the “stability under light condition in words” value [1]?
A: good thermal stability

Q: And the Solubility [2]?
A: >500 mg/mL

Q: And the water solubility [2]?
A: > 500 mg/mL

Q: And the “Level (hygroscopicity)” value [3]?
A: Very easy

Q: And the “Types of new impurities (type)” value [4]?
A: 7 type

Q: What about the “The decomposed amount (%)” value [4] of the same molecule?
A: 51.47%

Q: What about the hygroscopicity in words [5] of the same molecule?
A: very hydroscopic

Q: With `COC(=O)NCCCn1nc([C@@H](C)N(C(=O)[C@H]2CNCCO2)C2CC2)c2ccc(C)nc21` [morpholine derivative tartrate crystal form A] as the molecule, how does the “The decomposed amount (%)” value [1] read?
A: 2.14%

Q: And the “stability under light condition in words” value ([1]; listed as crystal form A)?
A: equivalent stability

Q: What about the Solubility [2] of the same molecule?
A: 100 mg/mL

Q: What about the “Weight change in 20%-80% humidity” value [3] of the same molecule?
A: 1.50%

Q: What about the “Level (hygroscopicity)” value [3] of the same molecule?
A: difficult

Q: What about the “Types of new impurities (type)” value [4] of the same molecule?
A: 6 type

Q: And the “The decomposed amount (%)” value [4]?
A: 17.93%

Q: And the “DVS weight change in a range of 20%-80% humidity” value [5]?
A: about 1.5%

Q: And the hygroscopicity in words [5]?
A: hardly hydroscopic

Q: What about the hygroscopicity in words ([5]; listed as crystal form A) of the same molecule?
A: hardly hydroscopic

Q: With `COC(=O)NCCCn1nc([C@@H](C)N(C(=O)[C@H]2CNCCO2)C2CC2)c2ccc(C)nc21` [morpholine derivative tartrate crystal form B] as the molecule, how does the “The decomposed amount (%)” value [1] read?
A: 3.61%

Q: What about the “stability under light condition in words” value ([1]; listed as crystal form B) of the same molecule?
A: equivalent stability

Q: And the Solubility [2]?
A: 150 to 300 mg/mL

Q: And the “Weight change in 20%-80% humidity” value [3]?
A: 6.58%

Q: What about the “Level (hygroscopicity)” value [3] of the same molecule?
A: easy

Q: What about the “Types of new impurities (type)” value [4] of the same molecule?
A: 4 type

Q: What about the “The decomposed amount (%)” value [4] of the same molecule?
A: 3.24%

Q: And the “stability under oxidation condition in words” value ([4]; listed as crystal form B)?
A: more stable than crystal form A

Q: And the “DVS weight change in a range of 20%-80% humidity” value [5]?
A: about 7%

Q: What about the hygroscopicity in words [5] of the same molecule?
A: relatively hydroscopic

Q: What about the hygroscopicity in words ([5]; listed as crystal form B) of the same molecule?
A: relatively hydroscopic

Q: Which Solubility [2] does the source give for `COC(=O)NCCCn1nc([C@@H](C)N(C(=O)[C@H]2CNCCO2)C2CC2)c2ccc(C)nc21` [morpholine derivative tartrate dihydrate] here?
A: 100 mg/mL

Q: What about the “Weight change in 20%-80% humidity” value [3] of the same molecule?
A: 9.05%

Q: And the “Level (hygroscopicity)” value [3]?
A: easy

Q: What about the “DVS weight change in a range of 0%-80% humidity” value ([5]; 0%-80% humidity) of the same molecule?
A: about 11.06%

Q: And the hygroscopicity in words [5]?
A: relatively hydroscopic

Q: With `COC(=O)NCCCn1nc([C@@H](C)N(C(=O)[C@H]2CNCCO2)C2CC2)c2ccc(C)nc21` [morpholine derivative tartrate] as the molecule, how does the water solubility [2] read?
A: 50 to 300 mg/mL
